The record followed here is patent US20240316023A1, “BENEDIN, PIPERIDINE, 2-BENZHYDRYL-3-HYDROXY-N-METHYL-, HYDROCHLORIDE AND DERIVATIVES THEREOF FOR USE IN TREATING KLEINE-LEVIN SYNDROME” (priority 2021, published 2024).

The target of the experiment is T1, M2 (h) (antagonist radioligand) (Homo sapiens, UniProt P08172).
T1 construct: CEREP (Eurofins, France), contract panel
T1 sequence (P08172 1-466): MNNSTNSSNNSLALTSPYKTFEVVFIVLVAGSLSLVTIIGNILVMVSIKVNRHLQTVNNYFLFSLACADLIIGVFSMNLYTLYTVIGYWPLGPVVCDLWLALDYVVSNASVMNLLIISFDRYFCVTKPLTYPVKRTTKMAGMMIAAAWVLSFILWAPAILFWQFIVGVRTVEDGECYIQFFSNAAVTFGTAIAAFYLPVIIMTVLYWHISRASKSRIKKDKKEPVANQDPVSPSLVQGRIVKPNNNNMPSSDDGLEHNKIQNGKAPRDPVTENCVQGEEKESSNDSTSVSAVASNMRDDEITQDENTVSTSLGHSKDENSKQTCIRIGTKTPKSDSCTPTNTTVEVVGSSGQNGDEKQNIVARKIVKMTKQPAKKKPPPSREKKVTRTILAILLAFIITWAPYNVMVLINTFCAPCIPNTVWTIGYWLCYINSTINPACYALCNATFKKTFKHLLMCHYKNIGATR
Put plainly: Radioligand binding panel (Eurofins/CEREP), M2. The following applies: 10^−5 M; % inhibition of control specific binding; read-out: % Inhibition at 10^−5M Benedin. The method, then:
Benedin was tested at 10^−5 M, calculated as a % inhibition of control specific binding of a radioactively labeled ligand specific for each target.
This binding profile panel was broadly defined with roughly an equal number of selective, central and peripheral therapeutically relevant targets, including native animal tissues, radioligands and specific enzymes involved in cell cycle regulation in accordance with Eurofins Standard Operating Procedure.
For radioligand binding experiments, the half maximal inhibitory concentration (IC50) and the half maximal effective concentration (EC50) values were determined (via computer software) by nonlinear regression analysis of the competition curves using Hill equation curve fitting. The inhibition constants (Ki) were calculated using the Cheng-Prusoff equation (Ki=IC50/(1+(L/KD)), where L is the concentration of radioligand in the assay, and KD is the affinity of the radioligand for the receptor.^60
The results are expressed as a % control specific binding ([measured specific binding/control specific binding]×100) and as a % inhibition of control specific binding (100−[(measured specific binding/control specific binding)×100] obtained in the presence of the test compounds. […]

In general, inhibition refers to the percentage by which the read-out fell short of the control. With `CN1CCCC(O)C1C(c1ccccc1)c1ccccc1` (stereo not shown) [Benedin, 2-benzhydryl-3-hydroxy-N-methyl-piperidine], the inhibition at 10 µM was 65%.
